pIC50: −log10 of the molar value. Read-outs that look alike come from different tables or passages of the source.
System: Human Jurkat T-cells (clone N)
Experiment: Jurkat T-cell activation (anti-TCR, CD69 upregulation)
Type: cell-based
In short: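 Jurkat cells in RPMI + 5% FBS preincubated with compound 1 h at 37 °C, then stimulated with anti-TCR C305 at 500 ng/ml for 20 h. CD69 surface expression stained with anti-CD69-APC and read by flow cytometry; IC50 versus solvent-only control.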

pIC50 | pIC50 (Homo sapiens, Jurkat) | SMILES
6.01 |  | O=C(c1cc2cc(Nc3ncc(F)c(Nc4ccc5c(c4)OCCO5)n3)ccc2o1)N1CCCNCC1 [Compound R926768]
< 5.00 |  | CCOC(=O)COc1cccc(Nc2ncc(F)c(Nc3ccc4c(c3)C(=O)OC4)n2)c1 [Compound R940285]
< 5.00 |  | O=C(O)Cc1cccc(Nc2ncc(F)c(Nc3cccc(CC(=O)O)c3)n2)c1 [Compound R935117]
 | 5.88 | COC(=O)c1cc(Nc2ncc(F)c(Nc3cccc(O)c3)n2)ccc1OC [Compound R940301]
5.41 |  | Cn1ncc2cc(Nc3nc(Nc4cccc(O)c4)ncc3F)ccc21 [Compound R935204]
 | < 5.00 | Fc1cnc(Nc2ccccc2-c2ccccc2)nc1Nc1ccccc1-c1ccccc1 [Compound R926398]
5.51 |  | Oc1cccc(Nc2ncc(F)c(Nc3ccc4cn[nH]c4c3)n2)c1 [Compound R935262]
 | < 5.00 | COc1ccc(-c2ccccc2)cc1Nc1ncc(Br)c(Nc2cc(-c3ccccc3)ccc2OC)n1 [Compound R925799]
5.38 |  | CC(C)(CO)c1ccc(Nc2ncc(F)c(Nc3ccc4oc(CO)cc4c3)n2)cc1 [Compound R935177]
4.88 |  | CNC(=O)COc1cccc(Nc2ncc(F)c(Nc3cccc(B(O)O)c3)n2)c1 [Compound R926754]
 | 5.70 | OCCOc1cccc(Nc2nc(Nc3ccc4c(c3)OCCO4)ncc2F)c1 [Compound R935176]
5.41 |  | CC(C)(CO)c1ccc(Nc2nc(Nc3ccc4c(c3)OCCO4)ncc2F)cc1 [Compound R935173]
4.90 |  | CNC(=O)COc1cccc(Nc2nc(Nc3ccc4c(c3)OCCO4)ncc2F)c1 [Compound R926776]
5.58 |  | Cn1nnnc1COc1ccc(Nc2nccc(Nc3cccc(O)c3)n2)cc1 [Compound R920917]
< 5.00 |  | CCOC(=O)c1cnc(Nc2ccc(OCC(=O)OC)cc2)nc1Nc1ccc(OCC(=O)OC)cc1 [Compound R926253]
5.59 |  | CNC(=O)COc1cccc(Nc2ncc(F)c(Nc3ccc(OC)c(O)c3)n2)c1 [Compound R926834]
 | 5.24 | O=C(NCCO)c1cc2cc(Nc3ncc(F)c(Nc4ccc5c(c4)OCCO5)n3)ccc2o1 [Compound R926498]
 | 4.97 | CCOC(=O)c1cc2cc(Nc3ncc(F)c(Nc4ccc(C(C)(C)C)cc4)n3)ccc2[nH]1 [Compound R926474]
5.81 |  | CN(C)C(=O)COc1cccc(Nc2ncc(F)c(Nc3ccc4c(c3)NCCO4)n2)c1 [Compound R909290]
 | < 5.00 | OCCNc1ncc(F)c(Nc2ccc3c(c2)OCCO3)n1 [Compound R925746]
4.69 |  | Cc1nc(COc2cccc(Nc3nc(Nc4cccc(O)c4)ncc3F)c2)no1 [Compound R945132]
5.41 |  | CC(C)(CO)c1ccc(Nc2ncc(F)c(Nc3cccc(O)c3)n2)cc1 [Compound R935171]
 | < 5.00 | Oc1cccc(Nc2ncc(F)c(NCCSCc3c(F)cccc3Cl)n2)c1 [Compound R926724]
 | 4.85 | CCOC(=O)C(Nc1ncc(C#N)c(NC(C(=O)OCC)C(C)C)n1)C(C)C (stereo not drawn) [Compound R925814]
< 5.00 |  | Nc1cccc(Nc2nc(Nc3cccc(NC(=O)CCC(N)C(=O)O)c3)ncc2F)c1 (racemic) [Compound R950255]
< 5.00 |  | CCOC(=O)COc1ccc(Nc2ncc(C#N)c(Nc3ccc(OCC(=O)OCC)cc3)n2)cc1 [Compound R925775]

pIC50 | pIC50 (Homo sapiens, Jurkat) | SMILES
5.59 |  | O=C(CNc1cccc(Nc2ncc(F)c(Nc3ccc4c(c3)OCCO4)n2)c1)N1CCNCC1 [Compound R950197]
 | 4.65 | Nc1cc(Nc2ncc(F)c(Nc3cc(N)cc(C(F)(F)F)c3)n2)cc(C(F)(F)F)c1 [Compound R950140]
4.69 |  | CCOC(=O)C(C)(C)c1ccc(Nc2ncc(F)c(Nc3ccc(OC(C)C)cc3)n2)cc1 [Compound R935150]
 | 5.00 | Cc1cc(Nc2ncc(F)c(Nc3ccc4c(c3)OCCO4)n2)c(C)cc1O [Compound R926792]
 | < 5.00 | CCCCCCOc1ccc(Nc2ncc(F)c(Nc3ccc4c(c3)OCCO4)n2)cc1 [Compound R920664]
< 5.00 |  | CCOC(=O)COc1cccc(Nc2ncc(F)c(Nc3cccc(C(C)(C)C)c3)n2)c1 [Compound R940270]
5.22 |  | CNC(=O)COc1cccc(Nc2ncc(F)c(Nc3ccc4c(c3)C(=O)CCO4)n2)c1 [Compound R950345]
 | < 5.00 | COC(=O)Cc1ccc(Nc2ncc(F)c(Nc3ccc(CC(=O)OC)cc3)n2)cc1 [Compound R926605]
5.37 |  | COc1ccc(Nc2nc(Nc3cc(C)c(O)c(Cl)c3)ncc2F)cc1CN1CCOCC1 [Compound R940316]
5.50 |  | NC(=O)COc1ccc(Nc2nc(Nc3ccc4c(c3)OCCO4)ncc2F)cc1 [Compound R945171]
 | < 5.00 | O=C(O)c1ccc(Nc2ncc(F)c(Nc3ccc(C(=O)O)cc3)n2)cc1 [Compound R945037]
< 5.00 |  | O=[N+]([O-])c1ccc(NCCO)c(Nc2ccnc(Nc3cc([N+](=O)[O-])ccc3NCCO)n2)c1 [Compound R950156]
< 5.00 |  | CCOc1ccc(Nc2ncc([N+](=O)[O-])c(Nc3ccc(OCC)cc3)n2)cc1 [Compound R940090]
 | < 5.00 | CNC(=O)c1cc(Nc2nc(NC)ncc2F)ccc1OC [Compound R940304]
< 5.00 |  | CCOC(=O)COc1cccc(Nc2nc(Nc3cccc(O)c3)ncc2F)c1 [Compound R926775]
 | 4.74 | CC(=O)c1cccc(Nc2ncc(F)c(Nc3cccc(C(C)=O)c3)n2)c1 [Compound R950376]
5.27 |  | Cn1ncc2cc(Nc3ncc(F)c(Nc4ccc5c(cnn5C)c4)n3)ccc21 [Compound R935192]
5.66 |  | Fc1cnc(Nc2ccc3c(c2)OCCO3)nc1Nc1ccc2cn[nH]c2c1 [Compound R935261]
5.86 |  | COc1ccc(Nc2nc(Nc3cc(C)c(O)c(Cl)c3)ncc2F)cc1CN1CCNCC1 [Compound R940318]
< 5.00 |  | CCOC(=O)COc1ccc(Nc2nc(Nc3ccc(OCC(=O)OCC)cc3)c([N+](=O)[O-])c(C(=O)OCC)n2)cc1 [Compound R926566]
< 5.00 |  | CNC(=O)COc1cccc(Nc2ncc(F)c(Nc3ccc(Cl)c(-c4nc5ccccc5s4)c3)n2)c1 [Compound R926900]
 | < 5.00 | CC(C)(C)c1cccc(Nc2ncc(F)c(Nc3cccc(O)c3)n2)c1 [Compound R940257]
 | 4.95 | Oc1ccc(Nc2ncc(F)c(Nc3ccc(O)c(C(F)(F)F)c3)n2)cc1C(F)(F)F [Compound R950093]
 | 5.56 | Fc1cnc(Nc2ccc3[nH]ccc3c2)nc1Nc1ccc2c(c1)OCCO2 [Compound R926748]
5.74 |  | CNC(=O)COc1cccc(Nc2ncc(F)c(Nc3ccc4c(c3)N(c3ccccn3)CC(C)(C)O4)n2)c1 [Compound R940337]
5.71 |  | CCOC1CCOc2ccc(Nc3nc(Nc4cccc(OCC(=O)NC)c4)ncc3F)cc21 (stereo not drawn) [Compound R950296]

pIC50 | pIC50 (Homo sapiens, Jurkat) | SMILES
 | 4.96 | Oc1cccc(Nc2nc(NCCN3CCN(Cc4ccccc4)CC3)ncc2F)c1 [Compound R940261]
< 5.00 |  | CC(C)(C)c1ccc(Nc2nc(Nc3cccc(OCC(=O)O)c3)ncc2F)cc1 [Compound R926726]
5.57 |  | O=C(COc1cccc(Nc2ncc(F)c(Nc3cccc(O)c3)n2)c1)NCCO [Compound R926506]
 | < 5.00 | Fc1cnc(NCc2csc3ccccc23)nc1NCc1csc2ccccc12 [Compound R945145]
 | < 5.00 | Oc1cccc(Nc2ncc(F)c(Nc3cccc(OC(F)(F)F)c3)n2)c1 [Compound R926885]
5.00 |  | Fc1cnc(Nc2ccc(N3CCOCC3)cc2)nc1Nc1ccc(N2CCOCC2)cc1 [Compound R926114]
 | < 5.00 | Oc1cccc(Nc2nc(NCc3csc4ccccc34)ncc2F)c1 [Compound R945164]
 | 5.12 | CC(C)Oc1ccc(Nc2ncc(F)c(Nc3cccc(N)c3)n2)cc1 [Compound R950165]
5.70 |  | O=C(CNc1cccc(Nc2ncc(F)c(Nc3ccc4c(c3)OCCO4)n2)c1)NCCNCc1ccccc1 [Compound R950198]
5.29 |  | O=C(CNc1cccc(Nc2ncc(F)c(Nc3cccc(NCCO)c3)n2)c1)N1CCNCC1 [Compound R950241]
6.04 |  | OCCn1ncc2cc(Nc3ncc(F)c(Nc4cccc(O)c4)n3)ccc21 [Compound R935256]
4.60 |  | CNC(=O)COc1cccc(Nc2ncc(F)c(Nc3cccc(C(N)=O)c3)n2)c1 [Compound R940299]
 | < 5.00 | Fc1ccc(Nc2ncc(F)c(Nc3ccc(F)c(Cl)c3)n2)cc1Cl [Compound R926223]
 | < 5.00 | CCOC(=O)Cc1ccc(Nc2ncc(C#N)c(Nc3ccc(CC(=O)OCC)cc3)n2)cc1 [Compound R926662]
 | 5.50 | CC(C)(CO)c1ccc(Nc2nc(Nc3cccc(OCCO)c3)ncc2F)cc1 [Compound R935161]
5.02 |  | COC(=O)COc1cccc(Nc2ncc(F)c(Nc3cccc(O)c3)n2)c1 [Compound R945118]
 | < 5.00 | Oc1ccc(CCNc2ncc(F)c(NCCc3ccc(O)cc3)n2)cc1 [Compound R925791]
< 5.00 |  | CCOC(=O)COc1ccc(Nc2nc(Nc3ccc(OCC(=O)OCC)cc3)c(N)c(C(=O)OCC)n2)cc1 [Compound R926567]
5.15 |  | NC(=O)COc1ccc(Nc2ncc(F)c(Nc3ccc(OCC(N)=O)cc3)n2)cc1 [Compound R945025]
 | < 5.00 | Fc1cnc(NCCc2ccccc2)nc1Nc1ccc2c(c1)OCCO2 (racemic) [Compound R908697]
< 5.00 |  | Fc1cnc(Nc2cccc(NCCOCc3ccccc3)c2)nc1Nc1cccc(NCCOCc2ccccc2)c1 [Compound R950174]
4.69 |  | CC(C)NC(=O)COc1ccc(Nc2ncc(C#N)c(Nc3ccc(OCC(=O)NC(C)C)cc3)n2)cc1 [Compound R925861]
5.64 |  | OCCOc1ccc(Nc2ncc(F)c(Nc3ccc4c(c3)OCCCO4)n2)cc1 [Compound R935183]
4.51 |  | CCOC(=O)C(C)(C)Oc1cccc(Nc2ncc(F)c(Nc3ccc(C)c(O)c3)n2)c1 [Compound R926908]

SMILES | pIC50 | pIC50 (Homo sapiens, Jurkat)
Nc1cccc(Nc2ncc(F)c(Nc3cccc(N)c3)n2)c1 [Compound R950107] |  | 5.27
CNC(=O)COc1cccc(Nc2ncc(F)c(Nc3ccc4c(c3)OCCO4)n2)c1 [Compound R926826] | 5.43 | 

Reference: patent US8158621B2, “Methods of treating or preventing autoimmune diseases with 2,4-pyrimidinediamine compounds” (Rigel Pharmaceuticals, Inc., priority 2002, dated 2012)
